Tested on: HBsAg
Experiment: HBsAg assay: chemiluminescence immunoassay (CLIA) of secreted HBsAg in supernatant of HepG2.2.15 cells
Assay type: cell-based, HBV
Conditions: Hepatitis B virus
Experimental: HepG2.2.15 cells (Acs et al. Proc Natl Acad Sci USA, 84, (1987), 4641-4), a constitutively HBV-expressing cell line were cultured in DMEM+Glutamax-I medium (Invitrogen, Carlsbad, Calif., USA), supplemented with 10% fetal bovine serum (Invitrogen) and G418 (Invitrogen) at a final concentration of 200 mg/L and maintained in 5% CO2 at 37° C.
HepG2.2.15 cells were seeded in duplicate into white, 96-well plates at 1.5×10^4 cells/well. The cells were treated with a three-fold serial dilution series of the compounds in DMSO. The final DMSO concentration in all wells was 1% and DMSO was used as no drug control.
The HBsAg chemiluminescence immunoassay (CLIA) kit (Autobio Diagnostics Co., Zhengzhou, China, Catalog number: CL0310-2) was used to measure the levels of secreted HBV antigens semi-quantitatively. For the detection 50 μL/well culture supernatant was used and HBsAg was quantified using HBsAg chemiluminescence immunoassay (CLIA) kit (Autobio Diagnostics Co., Zhengzhou, China, Catalog number: CL0310-2), 50 μL of the supernatant was transferred to the CLIA assay plate and 50 μL of enzyme conjugate reagent was added into each well. The plates were sealed and gently agitated for 1 hour at room temperature. The supernatant-enzyme-mixture was discarded and wells were washed 6 times with 300 μL of PBS. The residual liquid was removed by plating the CLIA plate […] on absorbent tissue paper. 25 μL of substrates A and B were added to each well. Luminance was measured using a luminometer (Mithras LB 940 Multimode Microplate Reader) after 10 minutes incubation. Dose-response curves were generated and the IC50 value was extrapolated by using the E-WorkBook Suite (ID Business Solutions Ltd., Guildford, UK). The IC50 was defined as the compound concentration (or conditioned media log dilution) at which HBsAg secretion was reduced by 50% compared to the no drug control.

Row | SMILES | IC50 [µM]
1 | CN(C(=O)Cn1nc(-c2ccc(Cl)cc2F)ccc1=O)c1ccc(C(F)(F)F)cc1 [Example 2-3, 2-[3-(4-Chloro-2-fluoro-phenyl)-6-oxo-pyridazin-1-yl]-N-methyl-N-[4-(trifluoromethyl)phenyl]acetamide] | 1.5
2 | CN(C(=O)Cn1nc(-c2c(F)cccc2Cl)ccc1=O)c1ccc(C(F)(F)F)cc1 [Example 2-4, 2-[3-(2-Chloro-6-fluoro-phenyl)-6-oxo-pyridazin-1-yl]-N-methyl-N-[4-(trifluoromethyl)phenyl]acetamide] | 4.76
3 | CN(C(=O)Cn1nc(-c2ccc(Cl)cc2)ccc1=O)c1ccc(Cl)cc1 [Example 2-5, N-(4-Chlorophenyl)-2-[3-(4-chlorophenyl)-6-oxo-pyridazin-1-yl]-N-methyl-acetamide] | 1.77
4 | CN(C(=O)CN1N=C(c2ccc(Cl)cc2)CNC1=O)c1ccc(C(F)(F)F)cc1 [Example 3-1, 2-[6-(4-Chlorophenyl)-3-oxo-4,5-dihydro-1,2,4-triazin-2-yl]-N-methyl-N-[4-(trifluoromethyl)phenyl]acetamide] | 10.3
5 | CN(C(=O)Cn1nc(-c2ccc(Cl)cc2)cnc1=O)c1ccc(Cl)cc1 [Example 3-2, N-(4-Chlorophenyl)-2-[6-(4-chlorophenyl)-3-oxo-1,2,4-triazin-2-yl]-N-methyl-acetamide] | 6.23

Reference: patent US9902701B2, “Pyridazones and triazinones for treatment and prophylaxis of hepatitis B virus infection” (priority 2014, dated 2018)
